Measurements published in paper PMC5136666, “Epobis is a Nonerythropoietic and Neuroprotective Agonist of the Erythropoietin Receptor with Anti-Inflammatory and Memory Enhancing Effects” (Mediators of Inflammation, 2016).
Positions of bridges follow the written chain, without caps; N, C: chain ends. Chains are numbered I, II in the order given. No end group written: not given here.

Legend:
[1] = test system: TNF secretion from AMJ2-C8 macrophages; assay: Macrophage activation assay (TNF secretion estimated from L-cell viability); type: cell-based, mouse; details: untreated ~48%, MTS, 4 experiments
Procedure: The macrophage activation assay is used to estimate tumor necrosis factor (TNF) secretion from the macrophage cell line AMJ2-C8 (ATCC; Boras, Sweden). Fibroblastoid mouse L929 cells (L-cells; ECCC, Salisbury, UK) are sensitive to TNF upon exposure to actinomycin D, and L-cell survival can therefore be utilized as an indirect estimate of TNF concentrations. The assay was performed essentially as described previously. Briefly, AMJ2-C8 cells were plated in 6-well MultiDish plates (Nunc, Denmark) and treated with 100 μM hydrocortisone (Sigma-Aldrich, Brøndby, Denmark), […] (8.4 nM) rhEPO (Calbiochem, Merck Millipore, Denmark), or Epobis (0.9–8.1 μM) for 24 h. They were then exposed to 10 ng/mL interferon-γ (IFN-γ) (R&D Systems, UK) for 24 h to induce the production of TNF [34].
L-cells were seeded in 96-well Multiwell plates (2 × 10^5 cells/mL, 100 μL/well; Nunc) and grown for 24 h. Then conditioned medium from stimulated macrophages was collected and added to the L-cells together with actinomycin D (Sigma, Sigma-Aldrich). L-cell viability was assayed 24 h later by the MTS assay (Promega, Madison, WI, USA) according to the manufacture's protocol. Cell viability was calculated as follows: (1) cell viability %=ODexperiment/ODcontrol×100. […]

EPO receptor = details: surface plasmon resonance; read-out: apparent KD; cited from earlier work
Description: We have previously designed two synthetic, dendrimeric peptides with sequences corresponding to the first and the second EPO receptor binding site of human EPO, respectively. The peptide derived from binding site 2 was named Epotris and has previously been reported to promote neuritogenesis and neuronal survival in vitro and in vivo in a nonerythropoietic manner and to attenuate status epilepticus. The peptide derived from binding site 1 (residues 36–53 in the structural model of the EPO:EPO receptor-complex; PDB: 1EER [27]) was named Epobis, and surface plasmon resonance analy ...

[2] = test system: TNF secretion from rat primary microglia; assay: LPS-induced TNF release from rat primary microglia (ELISA); type: cell-based; details: 0.9 μM, 1 h pretreatment, LPS 100 ng/mL 24 h, p < 0.05, 3 experiments
Procedure: Mixed glial cultures were prepared from 1-day-old to 2-day-old Wistar rat pups as described previously. Briefly, cortices were dissected, roughly chopped, and incubated in prewarmed 0.5% trypsin for 10 min. Then Dulbecco's modified Eagle's medium (DMEM) plus GlutaMAX (culture media; Gibco) containing 10% fetal calf serum, penicillin (100 U/mL), and streptomycin (100 U/mL) was added and tissue was triturated. The suspension was centrifuged at 500 ×g for 10 min, and the resulting pellet was resuspended in culture media and plated in a poly-L-lysine-coated T180 flask. The mixed glial culture was grown for 2-3 weeks at 37°C in a humidified 5% CO2 : 95% air environment. The medium was changed first at day 2 after culture preparation and then every 5-6 days. […] Images were recorded using a Zeiss Axiovert 100 microscope mounted with an AxioCam MRm camera using the accompanying ZEN 2012 software.
To induce TNF secretion, microglia cells were treated with lipopolysaccharide (LPS; 100 ng/mL; Sigma) following 1 h pretreatment in the absence or presence of Epobis. Conditioned media were collected 24 h later and released TNF was determined using a rat TNF Ready-SET-Go!® ELISA kit according to the manufacturer's instructions (eBioscience, San Diego, USA).

EAE in Lewis rats = assay: Experimental autoimmune encephalomyelitis (EAE); type: in vivo
Procedure: Experimental autoimmune encephalomyelitis (EAE) was induced as described previously. Briefly, female Lewis rats (200 g) received subcutaneous injections at both sides of the base of the tail with 0.2 mL of an emulsion containing 1 g/L Guinea pig myelin basic protein and 1 g/L M. tuberculosis in Freund's complete adjuvant (all from Sigma-Aldrich). The injections were performed under full inhalation anesthesia. EAE was induced in 30 animals; 6 healthy, age-matched, unimmunized rats were used as controls. Between day 0 and day 21, the weight and clinical signs of EAE were recorded daily for all animals. Clinical signs were scored as follows: 0, no abnormality; 0.5, weak tail; 1, limp tail; 2, mild palsy of one or both hind legs; 3, severe palsy of one or both hind legs; 4, complete paralysis of one or both hind legs; 5, paralysis of one or both hind legs and beginning paralysis of front legs; 6, moribund. Animals with a clinical score ≥4 were sacrificed immediately.
Starting at day 10 after induction of EAE, animals were treated once/day for 5 consecutive days with Epobis (10 mg/kg, 1 mL/kg, s.c.) or PBS (1.0 mL/kg, s.c.). The control group is identical to the control group of previously published data performed simultaneously with the Epobis study.

primary rat motoneurons = assay: Neurite outgrowth from primary motoneurons; type: cell-based; details: 24 h, bell-shaped concentration dependence, p < 0.0001, 3 independent experiments
Procedure: Primary rat motoneurons were isolated as described previously. Briefly, the ventral horns of the lumbar spinal cord were dissected from Wistar rat embryos (E15). The dissociated motoneurons were plated at a density of 7,000 cells per well on laminin-coated (5 μg/mL; Sigma-Aldrich) 8-well LabTek Permanox slides (NUNC, Denmark). Neurons were stimulated with serially diluted Epobis peptide for 24 h, fixed with 4% formalin, stained with polyclonal rabbit anti-rat growth-associated protein-43 antibodies (1 : 1000; Millipore), and analyzed by computer-assisted fluorescence microscopy as described.

[3] = Detection of Epobis in plasma and cerebrospinal fluid; type: in vivo, Wistar rats; details: rat
Procedure: Detection of biotinylated Epobis in plasma was performed essentially as described previously. Briefly, 10 mg/kg Epobis was injected subcutaneously (s.c.) in anaesthetized 200 g Wistar rats, and blood samples were collected from the orbital plexus at selected time points. Cerebrospinal fluid (CSF) was sampled from the cisterna magna as described previously.
Subsequently the concentrations of peptide in serum plasma and CSF were estimated using a competitive enzyme-linked immunosorbent assay, where all samples were run in duplicate.

[4] = test system: short-term/working memory of adult rats; assay: Social recognition test; type: in vivo, rat; details: 10 mg/kg single s.c., healthy adult rats
Procedure: The social recognition assay evaluates short-term/working memory of adult rats, a type of memory known to be impaired in old (>18 month) rats and in rats experiencing early stage AD [38]. Social recognition in rats was evaluated essentially as described previously. First, a habituation session was carried out; 24 h later, Epobis (10 mg/kg, 1 mL/kg, s.c.) or PBS (1.0 mL/kg, s.c.) was administered, and 1 h later the test animals were introduced to a new, juvenile male rat for 4 min (initial trial). After another 2.5 h the same juvenile rat was reintroduced, or as a control, an unfamiliar juvenile rat was introduced (test trial). To test long-term effects of the peptide, another social recognition test was performed with the initial trial taking place 73 h after administration of test compounds. Data are expressed as a recognition ratio: RR = T2/(T2 + T1), where T1 and T2 are the times spent on investigating the juvenile animal during the initial and the test trial, respectively.

[5] = test system: hematocrit and hemoglobin levels in mice; assay: Hematopoiesis assay; type: in vivo; details: 10 mg/kg s.c. twice per week for 5 weeks, female C57BL/6J mice
Procedure: Estimates of hematopoietic activity of Epobis in female C57BL/6J mice were performed essentially as described previously. Briefly, Epobis (10 mg/kg), EPO (10 mg/kg; Calbiochem), or vehicle (PBS) was injected subcutaneously twice per week for 5 weeks. Blood samples were collected from the orbital plexus once per week, and hemoglobin levels and hematocrit values were determined as described.

[6] = 10 mg/kg s.c. once/day for 5 days from day 10, Lewis rats
[7] = biotinylated Epobis, 10 mg/kg single s.c., competitive ELISA, n = 6

Row | Substance | L-cell viability relative to control (highest) ([1]; conditioned medium from IFN-γ-activated AMJ2-C8 macrophages pretreated 24 h with 2.7 μM Epobis, p < 0.05) | Kd (EPO receptor) [nM] | LPS-induced TNF secretion from microglia [2] | effect on survival of EAE animals versus vehicle (EAE in Lewis rats; [6]) | effect on weight changes of EAE animals versus vehicle (EAE in Lewis rats; [6]) | activated microglia in the brain stem of EAE animals, Epobis versus vehicle (EAE in Lewis rats; 10 mg/kg s.c. once/day for 5 days from day 10, immunohistochemistry) | clinical signs of EAE versus vehicle, later time points (EAE in Lewis rats; 10 mg/kg s.c. once/day for 5 days from day 10, n = 10) | clinical signs of EAE versus vehicle, day 2 after onset (EAE in Lewis rats; 10 mg/kg s.c. once/day for 5 days from day 10, n = 10, p < 0.05) | concentration of maximal stimulation of neurite outgrowth (primary rat motoneurons) [µM] | plasma : CSF ratio ([3]; 2 h after single s.c. 10 mg/kg) | time of peak plasma concentration [3, 7] | time the peptide remained detectable in blood [3, 7] | recognition ratio (RR) versus vehicle, test 73 h after administration ([4]; n = 12, t-test p < 0.018, different from 0.5 p < 0.0001) | recognition ratio (RR) versus vehicle, test 1 h after administration ([4]; n = 12, t-test p > 0.05) | effect on hematocrit [5] | effect on hemoglobin levels [5] | L-cell viability relative to control ([1]; conditioned medium from IFN-γ-activated AMJ2-C8 macrophages pretreated 24 h with 8.4 nM EPO)
1 | I: NENITVPDTKVNFYAWKRKK-NH2 / II: NENITVPDTKVNFYAWKRK / III: NENITVPDTKVNFYAWKR / IV: NENITVPDTKVNFYAWKR (amide I:19-IV:C, I:20-II:C, II:19-III:C; C-terminus assumed) [Epobis] | ~ 68% | ~60 | significant decrease | no significant effects | no significant effects | no difference | not significantly different | significantly lower | 0.33 | approximately 20 | around 2 h | at least 24 h | significantly lower | no significant difference | did not cause any statistically significant increases | did not cause any statistically significant increases | 
2 | erythropoietin [EPO] |  |  |  |  |  |  |  |  |  |  |  |  |  |  | statistically significant increases | statistically significant increases | ~ 64%
